System: TH-positive dopaminergic neurons in the striatum
Test: MPTP Model of Parkinson's Disease; recovery of TH-positive dopaminergic neurons in the striatum
Type: in vivo, male CD1 white mice
Conditions: 4 mg/kg s.c.; MPTP 30 mg/kg i.p. for 5 days; compound along with MPTP and 5 further days; 18 days following MPTP
Procedure: MPTP lesioning of dopaminergic neurons in mice was used as an animal model of Parkinson's Disease. Four week old male CD1 white mice were dosed i.p. with 30 mg/kg of MPTP for 5 days. Test compounds (4 mg/kg), or vehicle, were administered s.c. along with the MPTP for 5 days, as well as for an additional 5 days following cessation of MPTP treatment. At 18 days following MPTP treatment, the animals were sacrificed and the striata were dissected and perfusion-fixed. Immunostaining was performed on saggital and coronal brain sections using anti-tyrosine hydroxylase […] to quantitate survival and recovery of dopaminergic neurons. In animals treated with MPTP and vehicle, a substantial loss of functional dopaminergic terminals was observed as compared to non-lesioned animals. […] Table III presents quantitation for the recovery of TH-positive dopaminergic neurons in the striatum of animals receiving compounds 1, 3, 4 and 5 in this model.

First: O=C(OCCCc1cccnc1)[C@@H]1CCCN1C(=O)NC1CCCCC1 [Example 4, 3-(3-pyridyl)-1-propyl (2S)-1-[(cyclohexyl)carbamoyl]-pyrrolidine-2-carboxylate]
Second: O=C(OCCCc1cccnc1)[C@@H]1CCCN1C(=S)NC1CCCCC1 [Example 3, 3-(3-pyridyl)-1-propyl (2S)-1-[(cyclohexyl)thiocarbamoyl]-pyrrolidine-2-carboxylate]
The “% Recovery of TH Immunostaining” value of the first is higher: 59.79% for the first, 56.13% for the second.

Going from `CCC(C)CNC(=O)N1CCC[C@H]1C(=O)OCCCc1cccnc1` (stereo partly drawn) [Example 1, 3-(3-pyridyl)-1-propyl (2S)-1-[(2-methylbutyl)carbamoyl]pyrrolidine-2-carboxylate] to `O=C(OCCCc1cccnc1)[C@@H]1CCCN1C(=S)NC12CC3CC(CC(C3)C1)C2` [Example 5, 3-(3-pyridyl)-1-propyl (2S)-1-[(1-adamantyl)thiocarbamoyl]pyrrolidine-2-carboxylate], the “% Recovery of TH Immunostaining” value rises from 27.47% to 52.32%.
